According to ChEMBL document CHEMBL5712891, “Inhibition of BET bromodomain-dependent XIAP and FLIP expression sensitizes KRAS-mutated NSCLC to pro-apoptotic agents” (Cell Death Dis, 2016):
Activity calls are given as the source filed them. The calls are words filed in the database; no cut-off is given here.

Tests used:
DV-90 [1] = experiment: Induction of cell cycle arrest in human DV-90 cells assessed as accumulation of cells at G0/G1 phase at 1 uM for 24 hrs by Click-iT EdU Alexa Fluor 647 flow cytometric assay kit analysis (reference value: 47%); type: functional
A549 [2] = experiment: Induction of apoptosis in human A549 cells assessed as viable cells at 0.5 uM for 24 hrs by annexin V-PI staining based flow cytometric analysis (reference value: 97.7%); type: functional; details: read-out: Activity
A549 [3] = experiment: Induction of apoptosis in human A549 cells assessed as viable cells at 2.5 uM for 24 hrs by annexin V-PI staining based flow cytometric analysis (reference value: 97.7%); type: functional; details: read-out: Activity
NCI-H460 [4] = experiment: Induction of apoptosis in human NCI-H460 cells assessed as viable cells at 0.5 uM for 24 hrs by annexin V-PI staining based flow cytometric analysis (reference value: 92.8%); type: functional; details: read-out: Activity
DV-90 [5] = experiment: Induction of apoptosis in human DV-90 cells assessed as viable cells at 2.5 uM for 48 hrs by annexin V-PI staining based flow cytometric analysis (reference value: 81.9%); details: DV-90, 48 h
DV-90 [6] = experiment: Induction of cell cycle arrest in human DV-90 cells assessed as accumulation of cells at S phase at 0.1 uM for 24 hrs by Click-iT EdU Alexa Fluor 647 flow cytometric assay kit analysis (reference value: 30%); type: functional
DV-90 [7] = experiment: Induction of cell cycle arrest in human DV-90 cells assessed as accumulation of cells at G2/M phase at 0.1 uM for 24 hrs by Click-iT EdU Alexa Fluor 647 flow cytometric assay kit analysis (reference value: 25%); type: functional
NCI-H1373 [8] = experiment: Induction of cell cycle arrest in human NCI-H1373 cells assessed as accumulation of cells at G0/G1 phase at 0.5 uM for 24 hrs by Click-iT EdU Alexa Fluor 647 flow cytometric assay kit analysis (reference value: 45%); type: functional
NCI-H1373 [9] = experiment: Induction of cell cycle arrest in human NCI-H1373 cells assessed as accumulation of cells at G0/G1 phase at 0.25 uM for 24 hrs by Click-iT EdU Alexa Fluor 647 flow cytometric assay kit analysis (reference value: 48%); type: functional
A549 [10] = experiment: Induction of cell cycle arrest in human A549 cells assessed as accumulation of cells at G0/G1 phase at 1 uM for 24 hrs by Click-iT EdU Alexa Fluor 647 flow cytometric assay kit analysis (reference value: 61%); type: functional
A549 [11] = experiment: Induction of cell cycle arrest in human A549 cells assessed as accumulation of cells at S phase at 0.25 uM for 24 hrs by Click-iT EdU Alexa Fluor 647 flow cytometric assay kit analysis (reference value: 35%); type: functional
NCI-H1373 [12] = experiment: Induction of cell cycle arrest in human NCI-H1373 cells assessed as accumulation of cells at S phase at 0.5 uM for 24 hrs by Click-iT EdU Alexa Fluor 647 flow cytometric assay kit analysis (reference value: 45%); type: functional
A549 [13] = experiment: Induction of cell cycle arrest in human A549 cells assessed as accumulation of cells at S phase at 1 uM for 24 hrs by DAPI staining analysis (reference value: 36%); type: functional
DV-90 [14] = experiment: Induction of apoptosis in human DV-90 cells assessed as viable cells at 0.5 uM for 24 hrs by annexin V-PI staining based flow cytometric analysis (reference value: 81.5%); type: functional; details: read-out: Activity
A549 [15] = experiment: Induction of apoptosis in human A549 cells assessed as necrotic cells at 0.5 uM for 24 hrs by annexin V-PI staining based flow cytometric analysis (reference value: 1.3%); type: functional
A549 [16] = experiment: Induction of apoptosis in human A549 cells assessed as late apoptotic cells at 2.5 uM for 24 hrs by annexin V-PI staining based flow cytometric analysis (reference value: 2.3%); type: functional
NCI-H1373 [17] = experiment: Induction of apoptosis in human NCI-H1373 cells assessed as necrotic cells at 0.5 uM for 24 hrs by annexin V-PI staining based flow cytometric analysis (reference value: 5.5%); type: functional
NCI-H460 [18] = experiment: Induction of apoptosis in human NCI-H460 cells assessed as viable cells at 0.5 uM for 24 hrs by annexin V-PI staining based flow cytometric analysis (reference value: 94%); type: functional; details: read-out: Activity
NCI-H460 [19] = experiment: Induction of apoptosis in human NCI-H460 cells assessed as necrotic cells at 0.5 uM for 24 hrs by annexin V-PI staining based flow cytometric analysis (reference value: 2.7%); type: functional
NCI-H1373 [20] = experiment: Downregulation of c-MYC mRNA expression level in human NCI-H1373 cells at 0.1 to 1 uM for 24 hrs by qRT-PCR analysis; type: functional, cell-based; details: dose 0.1-1 µM
NCI-H23 [21] = experiment: Downregulation of c-MYC mRNA expression level in human NCI-H23 cells at 0.1 to 1 uM for 24 hrs by qRT-PCR analysis; type: functional, cell-based; details: dose 0.1-1 µM
NCI-H1373 [22] = experiment: Downregulation of c-MYC level SCID mouse tumor tissue xenografted with human NCI-H1373 cells at 50 mg/kg, ip for 24 hrs by Western blot analysis; type: functional, organism-based; details: Neoplasm
NCI-H23 [23] = experiment: Downregulation of XIAP protein expression level in human NCI-H23 cells at 1 uM for 24 hrs by […] analysis; type: functional, cell-based
A549 [24] = experiment: Downregulation of XIAP protein expression level in human A549 cells at 1 uM for 24 hrs by […] analysis; type: functional, cell-based
NCI-H358 [25] = experiment: Downregulation of XIAP protein expression level in human NCI-H358 cells at 1 uM for 24 hrs by […] analysis; type: functional, cell-based
DV-90 [26] = experiment: Downregulation of c-MYC protein expression level in human DV-90 cells at 1 uM for 24 hrs by […] analysis; type: functional, cell-based
NCI-H358 [27] = experiment: Downregulation of c-MYC protein expression level in human NCI-H358 cells at 1 uM for 24 hrs by […] analysis; type: functional, cell-based
NCI-H2030 = experiment: Downregulation of c-MYC protein expression level in human NCI-H2030 cells at 1 uM for 24 hrs by […] analysis; type: functional, cell-based
NCI-H1373 [28] = experiment: Induction of TRAIL dependent apoptosis in human NCI-H1373 cells assessed as PARP cleavage by Western blot analysis; type: functional, cell-based
NCI-H1373 [29] = experiment: Induction of TRAIL dependent apoptosis in human NCI-H1373 cells assessed as viable cells at 1 uM by annexin V-PI staining based flow cytometric analysis (reference value: 87.6%); type: functional; details: read-out: Activity
NCI-H1373 [30] = experiment: Induction of TRAIL dependent apoptosis in human NCI-H1373 cells assessed as early apoptotic cells at 1 uM by annexin V-PI staining based flow cytometric analysis (reference value: 0.5%); type: functional
HFF-1 = experiment: Cytotoxicity against HFF-1 cells at 500 to 2500 nM in presence of TNF by cell titre glo assay; type: toxicity, cell-based; details: human, hff-1, 2.5 µM; dose 500-2500 nM
A549 [31] = experiment: Induction of apoptosis in human A549 cells assessed as early apoptotic cells at 1 uM by annexin V-PI based flow cytometric analysis (reference value: 0.2%); type: functional
A549 [32] = experiment: Antitumor activity against human A549 cells assessed as test to control tumor ratio administered at 80 mg/kg, ip for 7 days along with cisplatin for 5 days follwed by compound treatment for 14 days relative to control; type: functional; details: time 7 day

`Cc1sc2c(c1C)C(c1ccc(Cl)cc1)=N[C@@H](CC(=O)Nc1ccc(O)cc1)c1nnc(C)n1-2` [BIRABRESIB] was tested, and the Activity (DV-90 [1]) was 60%, the viability at 0.5 µM (A549 [2]) was 98.1% and the viability at 2.5 µM (A549 [3]) was 97.3%. The viability at 0.5 µM (NCI-H460 [4]) was 90.6% and the viability at 2.5 µM (DV-90 [5]) was 49.4%.

`CCNC(=O)C[C@@H]1N=C(c2ccc(Cl)cc2)c2cc(OC)ccc2-n2c(C)nnc21` [MOLIBRESIB] showed an Activity (DV-90 [6]) of 27%, an Activity (DV-90 [7]) of 31% and an Activity (NCI-H1373 [8]) of 47%. For the same compound, the Activity (NCI-H1373 [9]) was 65%.

Compound `Cc1sc2c(c1C)C(c1ccc(Cl)cc1)=N[C@@H](CC(=O)OC(C)(C)C)c1nnc(C)n1-2` has an Activity (A549 [10]) of 64%, an Activity (A549 [11]) of 33% and an Activity (NCI-H1373 [12]) of 12%. It also gave an Activity (A549 [13]) of 32%, a viability at 0.5 µM (DV-90 [14]) of 61.3% and an Activity (A549 [15]) of 1.2%. It also gave an Activity (A549 [16]) of 1.8%, an Activity (NCI-H1373 [17]) of 13% and a viability at 0.5 µM (NCI-H460 [18]) of 91.2%. The Activity (NCI-H460 [19]) was 4%, the Activity (NCI-H1373 [20]) was “Active” and the Activity (NCI-H23 [21]) was “Active”. For the same compound, the Activity (NCI-H1373 [22]) was “Active”, the Activity (NCI-H23 [23]) was “Active” and the Activity (A549 [24]) was “Active”. The Activity (NCI-H358 [25]) was “Active”, the Activity (DV-90 [26]) was “Active” and the Activity (NCI-H358 [27]) was “Active”. For the same compound, the Activity (NCI-H2030) was “Active”, the Activity (NCI-H1373 [28]) was “Active” and the viability at 1 µM (NCI-H1373 [29]) was 64.4%. The Activity (NCI-H1373 [30]) was 2.4%, the Activity (HFF-1) was “Non-Toxic” and the Activity (A549 [31]) was 0.1%. It also gave a T/C (A549 [32]) of 41%.
